Assay results as given in patent publication US8471005B2 (Cephalon, Inc., priority 2008, dated 2013).
Like-named read-outs stand apart in the source and are kept apart here.

How the values were obtained:
JAK2 = molecular target: T1, JAK2 (Homo sapiens, UniProt O60674); test: Recombinant Human JAK2 Kinase Assay (TRF); format: biochemical; conditions: read-out: JAK2 Potency
T1 construct: host or cells: baculovirus expression system
In short: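 Europium-labelled PY100 antibody reported tyrosine phosphorylation of a Neutravidin-captured biotinyl 15-mer peptide by JAK2 (baculovirus-expressed, 15 ng/ml). Conditions: 20 mM HEPES pH 7.2, 0.2 μM ATP, 1 mM MnCl2, 0.1% BSA, DMSO 2.5% final, 20 min at room temperature.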

ALK = molecular target: T2, ALK (Homo sapiens, UniProt Q9UM73); test: ALK Kinase Assay (ELISA/TRF, PLC-γ substrate); format: biochemical; conditions: read-out: ALK Potency
T2 construct: host or cells: baculovirus expression system
In short: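 Read-out is time-resolved fluorescence from a Eu-N1-labeled PT66 antibody that binds phosphorylated PLC-γ, the substrate coated at 10 μg/mL in TBS. ALK at 30 ng/ml starts the reaction, which runs 15 minutes at 37° C.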

[1] = JAK2 kinase inhibition, 0.2 μM ATP
[2] = ALK kinase inhibition, 1 μM ATP

T2 sequence (Q9UM73 19-1620): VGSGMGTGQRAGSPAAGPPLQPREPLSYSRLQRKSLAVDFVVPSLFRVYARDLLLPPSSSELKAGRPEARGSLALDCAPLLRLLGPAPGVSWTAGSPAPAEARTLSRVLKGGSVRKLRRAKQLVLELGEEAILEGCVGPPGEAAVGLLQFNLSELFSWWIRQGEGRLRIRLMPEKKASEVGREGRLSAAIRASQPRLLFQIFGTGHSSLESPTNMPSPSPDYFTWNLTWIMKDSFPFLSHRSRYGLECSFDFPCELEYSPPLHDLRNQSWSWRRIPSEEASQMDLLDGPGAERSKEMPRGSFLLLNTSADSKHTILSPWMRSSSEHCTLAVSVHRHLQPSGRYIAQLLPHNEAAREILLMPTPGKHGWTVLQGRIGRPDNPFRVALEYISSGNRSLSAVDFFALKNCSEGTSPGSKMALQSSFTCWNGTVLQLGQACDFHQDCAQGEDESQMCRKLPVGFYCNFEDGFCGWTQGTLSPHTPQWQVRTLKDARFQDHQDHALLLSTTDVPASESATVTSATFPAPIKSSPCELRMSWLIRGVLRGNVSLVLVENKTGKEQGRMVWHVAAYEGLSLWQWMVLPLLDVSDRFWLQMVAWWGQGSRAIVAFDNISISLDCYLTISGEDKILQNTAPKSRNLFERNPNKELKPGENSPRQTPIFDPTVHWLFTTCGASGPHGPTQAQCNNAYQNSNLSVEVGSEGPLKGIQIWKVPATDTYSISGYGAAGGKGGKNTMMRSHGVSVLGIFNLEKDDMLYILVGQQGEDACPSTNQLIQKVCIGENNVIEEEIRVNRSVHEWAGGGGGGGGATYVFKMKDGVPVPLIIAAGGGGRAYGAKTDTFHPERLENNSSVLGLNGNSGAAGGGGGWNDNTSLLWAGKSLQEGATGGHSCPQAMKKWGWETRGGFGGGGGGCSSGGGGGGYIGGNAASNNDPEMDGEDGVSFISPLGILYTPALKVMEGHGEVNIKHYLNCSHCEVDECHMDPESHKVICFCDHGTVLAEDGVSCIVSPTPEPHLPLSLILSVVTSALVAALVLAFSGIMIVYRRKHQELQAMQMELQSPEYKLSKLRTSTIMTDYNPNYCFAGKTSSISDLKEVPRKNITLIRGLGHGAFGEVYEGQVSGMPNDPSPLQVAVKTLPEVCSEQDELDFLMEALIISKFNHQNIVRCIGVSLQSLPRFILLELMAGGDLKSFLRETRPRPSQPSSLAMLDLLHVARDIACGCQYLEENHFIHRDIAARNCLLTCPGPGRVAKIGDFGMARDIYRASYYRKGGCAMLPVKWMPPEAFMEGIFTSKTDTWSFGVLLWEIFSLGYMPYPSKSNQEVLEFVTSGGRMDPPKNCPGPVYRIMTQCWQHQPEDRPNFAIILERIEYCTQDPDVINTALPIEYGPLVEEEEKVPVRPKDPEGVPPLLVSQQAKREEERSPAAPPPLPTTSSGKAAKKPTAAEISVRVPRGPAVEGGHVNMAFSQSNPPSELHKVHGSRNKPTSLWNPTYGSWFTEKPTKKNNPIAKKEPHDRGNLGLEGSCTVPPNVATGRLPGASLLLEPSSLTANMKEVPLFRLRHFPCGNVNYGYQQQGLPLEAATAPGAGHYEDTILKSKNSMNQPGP
T1 sequence (O60674 whole entry): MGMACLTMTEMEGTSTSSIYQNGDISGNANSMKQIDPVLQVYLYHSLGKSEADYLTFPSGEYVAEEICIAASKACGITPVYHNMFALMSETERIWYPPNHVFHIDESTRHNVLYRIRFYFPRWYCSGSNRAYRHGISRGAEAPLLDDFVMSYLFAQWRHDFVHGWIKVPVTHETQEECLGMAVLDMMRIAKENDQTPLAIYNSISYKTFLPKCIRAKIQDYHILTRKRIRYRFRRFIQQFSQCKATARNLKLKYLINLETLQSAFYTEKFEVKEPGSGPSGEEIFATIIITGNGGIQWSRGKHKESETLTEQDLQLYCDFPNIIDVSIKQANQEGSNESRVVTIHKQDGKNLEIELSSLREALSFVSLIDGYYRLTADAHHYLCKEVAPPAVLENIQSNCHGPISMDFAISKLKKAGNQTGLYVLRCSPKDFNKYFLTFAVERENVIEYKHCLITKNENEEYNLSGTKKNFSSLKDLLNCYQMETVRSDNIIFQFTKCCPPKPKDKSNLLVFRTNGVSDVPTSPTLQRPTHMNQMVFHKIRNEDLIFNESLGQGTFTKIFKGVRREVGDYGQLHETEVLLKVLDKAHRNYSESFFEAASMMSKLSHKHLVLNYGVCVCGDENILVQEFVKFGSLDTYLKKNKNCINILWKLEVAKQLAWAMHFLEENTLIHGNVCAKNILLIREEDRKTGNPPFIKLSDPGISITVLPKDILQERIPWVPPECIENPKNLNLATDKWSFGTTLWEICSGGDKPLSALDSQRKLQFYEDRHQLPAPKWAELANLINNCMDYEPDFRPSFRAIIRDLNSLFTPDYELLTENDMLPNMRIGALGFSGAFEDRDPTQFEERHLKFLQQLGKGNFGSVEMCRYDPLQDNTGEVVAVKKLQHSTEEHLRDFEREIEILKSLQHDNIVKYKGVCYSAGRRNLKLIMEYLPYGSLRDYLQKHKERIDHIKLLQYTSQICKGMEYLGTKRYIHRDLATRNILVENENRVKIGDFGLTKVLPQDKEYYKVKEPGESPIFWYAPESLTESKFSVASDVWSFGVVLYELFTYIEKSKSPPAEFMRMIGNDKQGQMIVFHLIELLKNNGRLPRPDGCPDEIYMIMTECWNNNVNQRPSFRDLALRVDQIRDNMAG

| SMILES | IC50 (JAK2; JAK2 Kinase Inhibition) [nM] | IC50 (ALK; ALK Kinase Inhibition) [nM] | IC50 (JAK2; [1]) [nM] | IC50 (ALK; [2]) [nM] |
| --- | --- | --- | --- | --- |
| COCCOc1ncc2ccc(-c3ccc(S(C)(=O)=O)cc3)n2n1 [Example 197, 7-(4-Methanesulfonyl-phenyl)-2-(2-methoxy-ethoxy)-pyrrolo[2,1-f][1,2,4]triazine] | 100 to 1000 | > 10000 | – | – |
| COc1ccc(-c2ccc3cnc(Nc4ccc(N5CCN(C)CC5)cc4)nn23)cc1 [Example 421, [7-(4-Methoxy-phenyl)-pyrrolo[2,1-f][1,2,4]triazin-2-yl]-[4-(4-methyl-piperazin-1-yl)-phenyl]-amine] | < 100 | 100 to 1000 | – | – |
| COc1cc(N2CCCN(C[C@@H](C)O)CC2)ccc1Nc1ncc2ccc(-c3ccccc3OC)n2n1 [Example 766, (R)-1-(4-{3-Methoxy-4-[7-(2-methoxy-phenyl)-pyrrolo[2,1-f][1,2,4]triazin-2-ylamino]-phenyl}-[1,4]diazepan-1-yl)-propan-2-ol] | – | – | < 100 | < 100 |
| COc1ccc(Cl)cc1-c1ccc2cnc(Nc3ccc(C4CCN(C)CC4)cc3)nn12 [Example 1121, [7-(5-Chloro-2-methoxy-phenyl)-pyrrolo[2,1-f][1,2,4]triazin-2-yl]-[4-(1-methyl-piperidin-4-yl)-phenyl]-amine] | – | – | < 100 | < 100 |
| CN1CCN(c2ccc(Nc3ncc4ccc(-c5ccc(CO)cc5)n4n3)cc2)CC1 [Example 1497, (4-{2-[4-(4-Methyl-piperazin-1-yl)-phenylamino]-pyrrolo[2,1-f][1,2,4]triazin-7-yl}-phenyl)-methanol] | < 100 | < 100 | – | – |
| COc1ccccc1-c1ccc2cnc(Nc3cc(F)c(N4CCN(C[C@H](C)O)CC4)cc3F)nn12 [Example 1481, (S)-1-(4-{2,5-Difluoro-4-[7-(2-methoxy-phenyl)-pyrrolo[2,1-f][1,2,4]triazin-2-ylamino]-phenyl}-piperazin-1-yl)-propan-2-ol] | < 100 | < 100 | – | – |
| CS(=O)(=O)c1ccc(-c2ccc3cnc(-n4cnc5cnccc54)nn23)cc1 [Example 330, 1-[7-(4-Methanesulfonyl-phenyl)-pyrrolo[2,1-f][1,2,4]triazin-2-yl]-1H-imidazo[4,5-c]pyridine] | 1000 to 10000 | 1000 to 10000 | – | – |
| COc1ccccc1-c1ccc2cnc(Nc3ccc(C4(C#N)CCN(CC(N)=O)CC4)cc3)nn12 [Example 1548, 2-(4-Cyano-4-{4-[7-(2-methoxy-phenyl)-pyrrolo[2,1-f][1,2,4]triazin-2-ylamino]-phenyl}-piperidin-1-yl)-acetamide] | < 100 | 100 to 1000 | – | – |
| CN1CCN(c2ccc(Nc3ncc4cc(-c5ccccc5OCC#N)cn4n3)cc2)CC1 [Example 1155, (2-{2-[4-(4-Methyl-piperazin-1-yl)-phenylamino]-pyrrolo[2,1-f][1,2,4]triazin-6-yl}-phenoxy)-acetonitrile] | – | – | 100 to 1000 | 1000 to 10000 |

The remaining lines, values ahead:

| IC50 (JAK2; JAK2 Kinase Inhibition) [nM] | IC50 (ALK; ALK Kinase Inhibition) [nM] | IC50 (JAK2; [1]) [nM] | IC50 (ALK; [2]) [nM] | SMILES |
| --- | --- | --- | --- | --- |
| < 100 | 100 to 1000 | – | – | CC(C)(C)NS(=O)(=O)c1cccc(-c2ccc3cnc(Nc4ccc(N5CCN(CC(N)=O)CC5)c(F)c4)nn23)c1 [Example 1407, 2-(4-{4-[7-(3-tert-Butylsulfamoyl-phenyl)-pyrrolo[2,1-f][1,2,4]triazin-2-ylamino]-2-fluoro-phenyl}-piperazin-1-yl)-acetamide] |
| – | – | 100 to 1000 | < 100 | CCN(c1ccccc1-c1ccc2cnc(Nc3ccc(C4CCN(C[C@H](O)CO)CC4)cc3OC)nn12)S(C)(=O)=O [Example 872, N-[2-(2-{4-[1-((S)-2,3-Dihydroxy-propyl)-piperidin-4-yl]-2-methoxy-phenylamino}-pyrrolo[2,1-f][1,2,4]triazin-7-yl)-phenyl]-N-ethyl-methanesulfonamide] |
| 100 to 1000 | < 100 | – | – | COc1cc(N2CCC(C)(N3CCOCC3)CC2)ccc1Nc1ncc2ccc(-c3ccccc3N(C)S(C)(=O)=O)n2n1 [Example 1468, N-(2-{2-[2-Methoxy-4-(4-methyl-4-morpholin-4-yl-piperidin-1-yl)-phenylamino]-pyrrolo[2,1-f][1,2,4]triazin-7-yl}-phenyl)-N-methyl-methanesulfonamide] |
| < 100 | 100 to 1000 | – | – | COCCN1CCc2ccc(Nc3ncc4ccc(-c5ccc(S(C)(=O)=O)cc5)n4n3)cc2CC1 [Example 89, [7-(4-Methanesulfonyl-phenyl)-pyrrolo[2,1-f][1,2,4]triazin-2-yl]-[3-(2-methoxy-ethyl)-2,3,4,5-tetrahydro-1H-benzo[d]azepin-7-yl]-amine] |
| – | – | 1000 to 10000 | < 100 | COc1cc(C2CCN(CC(N)=O)CC2)ccc1Nc1ncc2ccc(-c3cn(C)nc3N(C)S(C)(=O)=O)n2n1 [Example 1256, 2-[4-(4-{7-[3-(Methanesulfonyl-methyl-amino)-1-methyl-1H-pyrazol-4-yl]-pyrrolo[2,1-f][1,2,4]triazin-2-ylamino}-3-methoxy-phenyl)-piperidin-1-yl]-acetamide] |
| – | – | 1000 to 10000 | < 100 | COc1cc(N2CCC(N3CCN(C)CC3)CC2)ccc1Nc1ncc2ccc(-c3ccccc3S(=O)(=O)N(C)C)n2n1 [Example 532, 2-(2-{2-Methoxy-4-[4-(4-methyl-piperazin-1-yl)-piperidin-1-yl]-phenylamino}-pyrrolo[2,1-f][1,2,4]triazin-7-yl)-N,N-dimethyl-benzenesulfonamide] |
| < 100 | 100 to 1000 | – | – | C[C@H](O)CN1CCN(c2cc(F)c(Nc3ncc4ccc(-c5ccccc5N(C)S(C)(=O)=O)n4n3)cc2F)CC1 [Example 1482, N-[2-(2-{2,5-Difluoro-4-[4-((S)-2-hydroxy-propyl)-piperazin-1-yl]-phenylamino}-pyrrolo[2,1-f][1,2,4]triazin-7-yl)-phenyl]-N-methyl-methanesulfonamide] |
| < 100 | 100 to 1000 | – | – | CC(=O)N1CCOc2ccc(Nc3ncc4ccc(-c5ccccc5N(C)S(C)(=O)=O)n4n3)cc21 [Example 1374, N-{2-[2-(4-Acetyl-3,4-dihydro-2H-1,4-benzoxazin-6-ylamino)-pyrrolo[2,1-f][1,2,4]triazin-7-yl]-phenyl}-N-methyl-methanesulfonamide] |
| – | – | 100 to 1000 | < 100 | COc1cc(CCN2CCN(C)CC2)ccc1Nc1ncc2ccc(-c3ccccc3N(C)S(C)(=O)=O)n2n1 [Example 491, N-[2-(2-{2-Methoxy-4-[2-(4-methyl-piperazin-1-yl)-ethyl]-phenylamino}-pyrrolo[2,1-f][1,2,4]triazin-7-yl)-phenyl]-N-methyl-methanesulfonamide] |
| – | – | 1000 to 10000 | < 100 | COc1cc(CN2CCNCC2)ccc1Nc1ncc2ccc(-c3ccccc3N(C)S(C)(=O)=O)n2n1 [Example 1223, N-{2-[2-(2-Methoxy-4-piperazin-1-ylmethyl-phenylamino)-pyrrolo[2,1-f][1,2,4]triazin-7-yl]-phenyl}-N-methyl-methanesulfonamide] |
| – | – | < 100 | 100 to 1000 | CC(C)(C)NS(=O)(=O)c1cccc(-c2ccc3cnc(Nc4ccc5c(c4)CN(CC(N)=O)C5)nn23)c1 [Example 927, 2-{5-[7-(3-tert-Butylsulfamoyl-phenyl)-pyrrolo[2,1-f][1,2,4]triazin-2-ylamino]-1,3-dihydro-isoindol-2-yl}-acetamide] |
| < 100 | 1000 to 10000 | – | – | CN1C(=O)Cc2cc(Nc3ncc4ccc(-c5cccnc5)n4n3)ccc21 [Example 374, 1-Methyl-5-(7-pyridin-3-yl-pyrrolo[2,1-f][1,2,4]triazin-2-ylamino)-1,3-dihydro-indol-2-one] |
